Legend:
SERT and NET = conditions: cited from earlier work
NET [1] = biological target: T1, NET (Homo sapiens, UniProt P23975); assay: hNET membrane radioligand binding assay (3H-nisoxetine); set-up: expressed in transfected cells; host or cells: HEK-293; conditions: hNET membranes (HEK-293), 1.0 nM 3H-nisoxetine; read-out: NET pKi (converted)
How it was run: (§1)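 HEK-293 membranes stably expressing hNET or hSERT; inhibition of ³H-nisoxetine (hNET) or ³H-citalopram (hSERT) binding in 50 mM Tris-HCl, 120 mM NaCl, 5 mM KCl, pH 7.4, 60 min at 22 °C. Filtration, scintillation counting; nonspecific with 1 μM desipramine (NET) or 1 μM duloxetine (SERT). pKi via Cheng-Prusoff from IC50 and radioligand Kd.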

NET [2] = biological target: T1, NET; assay: hNET neurotransmitter uptake assay (3H-NE); type: cell-based; set-up: expressed in transfected cells; host or cells: HEK-293; conditions: norepinephrine reuptake inhibition, HEK-293 hNET cells, 3H-NE (no asterisk); read-out: NET pIC50 (converted)
Procedure: (§2) Neurotransmitter uptake assays were used to measure inhibition of ^3H-serotonin (^3H-5-HT), ^3H-norepinephrine (^3H-NE), and ^3H-dopamine (^3H-DA) uptake into cells expressing the respective transporter (hSERT, hNET or hDAT) in order to determine the pIC50 values of test compounds at the transporters.
(§3) HEK-293 derived cell lines stably-transfected with hSERT, hNET, or hDAT, respectively, were grown in DMEM medium supplemented with 10% dialyzed FBS (for hSERT) or FBS (for hNET and hDAT), 100 μg/ml penicillin, 100 μg/ml streptomycin, 2 mM L-glutamine and 250 μg/ml of the aminoglycoside antibiotic G418 (for hSERT and hNET) or 800 ug/ml (for hDAT), in a 5% CO2 humidified incubator at 37° C. When cultures reached 80% confluence, the cells were washed thoroughly in PBS (without Ca^2+ and Mg^2+) and lifted with 5 mM EDTA in PBS. Cells were harvested by centrifugation at 1100 rpm for 5 minutes, washed once by resuspension in PBS, then centrifuged. The supernatant was discarded and the cell pellet resuspended, by gentle trituration, in room temperature Krebs-Ringer bicarbonate buffer containing HEPES (10 mM), CaCl2 (2.2 mM), ascorbic acid (200 μM) and pargyline (200 μM), pH 7.4. The final concentration of cells in the cell suspension was 7.5×10^4 cells/ml, 1.25×10^5 cells/ml, and 5.0×10^4 cells/ml for SERT, NET, and DAT cell lines, respectively.
(§4) Neurotransmitter uptake assays were performed in a 96-well assay plate in a total volume of 400 μl assay buffer (Krebs-Ringer bicarbonate buffer containing HEPES (10 mM), CaCl2 (2.2 mM), ascorbic acid (200 μM) and pargyline (200 μM), pH 7.4) with 1.5×10^4 and 2.5×10^4 cells, for SERT, NET, and DAT, respectively. […] Stock solutions (10 mM in DMSO) of test compound were prepared and serial dilutions prepared using 50 mM Tris-HCl, 120 mM NaCl, 5 mM KCl, pH 7.4, 0.1% BSA, 400 μM ascorbic acid. Test compounds were incubated for 30 minutes at 37° C. with the respective cells, prior to addition of radiolabeled neurotransmitter, ^3H-5-HT (20 nM final concentration), ^3H-NE (50 nM final concentration) or ^3H-DA (100 nM final concentration). Non-specific neurotransmitter uptake was determined in the presence of 2.5 μM duloxetine, 2.5 μM desipramine, or 10 uM GBR-12909 (each in Dilution Buffer) for the hSERT, hNET, or hDAT assays, respectively.
(§5) Following a 10 minute incubation, at 37° C., with radioligand, the cells were harvested by rapid filtration over a 96-well UniFilter GF/B plate, pretreated with 1% BSA, and washed 6 times with 650 μl wash buffer (ice cold PBS). Plates were dried overnight at 37° C., ˜45 μl of MicroScint™-20 (Perkin Elmer) added and incorporated radioactivity quantitated via liquid scintillation spectroscopy Inhibition curves were analyzed using GraphPad Prism Software package (GraphPad Software, Inc., San Diego, Calif.). IC50 values were generated from concentration response curves using the Sigmoidal Dose Response (variable slope) algorithm in Prism GraphPad.

SERT [3] = biological target: T2, SERT (Homo sapiens, UniProt P31645); assay: hSERT membrane radioligand binding assay (3H-citalopram); set-up: expressed in transfected cells; host or cells: HEK-293; conditions: hSERT membranes (HEK-293), 1.0 nM 3H-citalopram; read-out: SERT pKi (converted)
How it was run: as §1

SERT [4] = biological target: T2, SERT; assay: hSERT neurotransmitter uptake assay (3H-5-HT); type: cell-based; set-up: expressed in transfected cells; host or cells: HEK-293; conditions: serotonin reuptake inhibition, HEK-293 hSERT cells, 3H-5-HT (no asterisk); read-out: SERT pIC50 (converted)
Procedure: as §2, §3, §4, §5

T1 sequence (P23975 whole entry): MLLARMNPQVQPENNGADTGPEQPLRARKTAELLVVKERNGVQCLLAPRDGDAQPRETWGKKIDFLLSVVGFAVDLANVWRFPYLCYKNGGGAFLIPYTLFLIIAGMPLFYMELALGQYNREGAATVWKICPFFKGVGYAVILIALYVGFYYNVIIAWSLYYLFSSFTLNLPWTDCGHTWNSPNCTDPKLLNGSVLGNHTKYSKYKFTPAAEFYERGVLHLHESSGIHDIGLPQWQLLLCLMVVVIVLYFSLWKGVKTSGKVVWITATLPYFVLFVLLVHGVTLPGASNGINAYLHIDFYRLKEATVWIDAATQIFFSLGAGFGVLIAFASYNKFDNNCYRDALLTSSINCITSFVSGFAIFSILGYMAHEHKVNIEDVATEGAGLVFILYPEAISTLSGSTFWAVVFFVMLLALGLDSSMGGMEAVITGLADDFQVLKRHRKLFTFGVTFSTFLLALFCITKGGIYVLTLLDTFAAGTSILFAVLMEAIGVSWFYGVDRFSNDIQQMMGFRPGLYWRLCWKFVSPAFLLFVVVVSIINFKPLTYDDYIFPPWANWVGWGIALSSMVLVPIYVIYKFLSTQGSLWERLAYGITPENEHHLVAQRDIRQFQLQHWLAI
T2 sequence (P31645 whole entry): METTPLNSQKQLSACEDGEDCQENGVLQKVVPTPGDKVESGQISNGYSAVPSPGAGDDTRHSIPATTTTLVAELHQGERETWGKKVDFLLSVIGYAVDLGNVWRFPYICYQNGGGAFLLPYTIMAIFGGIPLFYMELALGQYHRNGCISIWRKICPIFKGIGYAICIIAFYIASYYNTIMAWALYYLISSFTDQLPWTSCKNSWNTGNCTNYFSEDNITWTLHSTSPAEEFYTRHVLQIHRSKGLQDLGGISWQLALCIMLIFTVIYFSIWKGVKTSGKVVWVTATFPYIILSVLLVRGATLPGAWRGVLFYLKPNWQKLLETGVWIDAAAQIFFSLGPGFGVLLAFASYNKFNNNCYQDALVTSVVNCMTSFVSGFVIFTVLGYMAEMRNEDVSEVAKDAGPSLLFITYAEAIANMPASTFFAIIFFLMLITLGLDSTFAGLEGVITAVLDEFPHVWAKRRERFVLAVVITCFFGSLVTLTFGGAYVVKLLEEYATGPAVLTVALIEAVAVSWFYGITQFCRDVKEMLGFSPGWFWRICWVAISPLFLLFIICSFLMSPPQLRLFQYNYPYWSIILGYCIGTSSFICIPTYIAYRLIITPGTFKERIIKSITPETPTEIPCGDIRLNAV

Row | Structure (SMILES) | Ki (NET [1]) | IC50 (NET [2]) | Ki (SERT [3]) | IC50 (SERT [4]) | affinity for SERT relative to NET (SERT and NET; Vaishnavi et al. (2004)) | selectivity (measured as pKi) for SERT over NET (SERT and NET) | NET selective (SERT and NET)
1 | CNCC[C@H](Oc1cccc2ccccc12)c1cccs1 [duloxetine] |  |  |  |  | higher affinity for SERT relative to NET | 10 fold | 
2 | CCN(CC)C(=O)C1(c2ccccc2)CC1CN (stereo not shown) [milnacipran] |  |  |  |  |  | 2.5 fold | 
3 | CNCC[C@@H](Oc1ccccc1C)c1ccccc1 [Atomoxetine] |  |  |  |  |  |  | 10 fold

The next lines start with results.

Row | Ki (NET [1]) | IC50 (NET [2]) | Ki (SERT [3]) | IC50 (SERT [4]) | Structure (SMILES) | affinity for SERT relative to NET (SERT and NET; Vaishnavi et al. (2004)) | selectivity (measured as pKi) for SERT over NET (SERT and NET) | NET selective (SERT and NET)
4 | ≤ 10 nM | ≤ 10 nM | ≤ 10 nM | ≤ 100 nM | Fc1cccc(O[C@H](C2CCOCC2)[C@@H]2CCNC2)c1Cl [Example 13-16, (R)-3-[(R)-(2-Chloro-3-fluorophenoxy)(tetrahydropyran-4-yl)methyl]pyrrolidine] |  |  | 
5 | ≤ 10 nM | ≤ 10 nM | ≤ 10 nM | ≤ 100 nM | Clc1cccc(O[C@H](C2CCOCC2)[C@@H]2CCNC2)c1Cl [Example 13-13, (R)-3-[(R)-(2,3-Dichlorophenoxy)(tetrahydropyran-4-yl)methyl]pyrrolidine] |  |  | 
6 | ≤ 10 nM | ≤ 100 nM | ≤ 10 nM | ≤ 100 nM | COC[C@@H](Oc1cccc(F)c1Cl)[C@H]1CCNC1 [Example 4-13, (S)-3-[(S)-1-(2-Chloro-3-fluorophenoxy)-2-methoxyethyl]pyrrolidine] |  |  | 
7 | ≤ 10 nM | ≤ 10 nM | ≤ 10 nM | ≤ 100 nM | Clc1ccccc1O[C@@H](C1CCOCC1)[C@@H]1CCNC1 [Example 13-3, (R)-3-[(S)-(2-Chlorophenoxy)(tetrahydropyran-4-yl)methyl]pyrrolidine] |  |  | 
8 | ≤ 100 nM | ≤ 100 nM | ≤ 10 nM | ≤ 10 nM | COC[C@@H](Oc1ccc(Cl)cc1Cl)[C@H]1CCNC1 [Example 4-23, (S)-3-[(S)-1-(2,4-Dichlorophenoxy)-2-methoxyethyl]pyrrolidine] |  |  | 
9 | ≤ 10 nM | ≤ 100 nM | ≤ 10 nM | ≤ 100 nM | Clc1cc(Cl)cc(O[C@H](C2CCOCC2)[C@@H]2CCNC2)c1 [Example 13-29, (R)-3-[(R)-(3,5-Dichlorophenoxy)(tetrahydropyran-4-yl)methyl]pyrrolidine] |  |  | 

— US8455665B2, “3-phenoxymethylpyrrolidine compounds” (Theravance, Inc., priority 2009, dated 2013)
